Reference: US7625713B2, “Process for identifying a ligand that binds to the NEP binding site for the SMR1 pentapeptide” (Institut Pasteur, priority 2000, dated 2009)

Experiments:
NEP [1] = target: T1, NEP (Rattus norvegicus, UniProt P07861); assay: Met-enkephalinase activity of rat spinal cord slices, Met-enkephalin RIA; format: biochemical; details: 10 μM, fresh spinal cord tissue, 20 min at 25° C.
T1 construct: incubations of membrane and fresh tissue slice preparations from nervous tissues; from tissue; host or cells: dorsal spinal cord of male Wistar rats (fresh slices or 100 000 x g membrane fraction)
T1 sequence (P07861 1-750): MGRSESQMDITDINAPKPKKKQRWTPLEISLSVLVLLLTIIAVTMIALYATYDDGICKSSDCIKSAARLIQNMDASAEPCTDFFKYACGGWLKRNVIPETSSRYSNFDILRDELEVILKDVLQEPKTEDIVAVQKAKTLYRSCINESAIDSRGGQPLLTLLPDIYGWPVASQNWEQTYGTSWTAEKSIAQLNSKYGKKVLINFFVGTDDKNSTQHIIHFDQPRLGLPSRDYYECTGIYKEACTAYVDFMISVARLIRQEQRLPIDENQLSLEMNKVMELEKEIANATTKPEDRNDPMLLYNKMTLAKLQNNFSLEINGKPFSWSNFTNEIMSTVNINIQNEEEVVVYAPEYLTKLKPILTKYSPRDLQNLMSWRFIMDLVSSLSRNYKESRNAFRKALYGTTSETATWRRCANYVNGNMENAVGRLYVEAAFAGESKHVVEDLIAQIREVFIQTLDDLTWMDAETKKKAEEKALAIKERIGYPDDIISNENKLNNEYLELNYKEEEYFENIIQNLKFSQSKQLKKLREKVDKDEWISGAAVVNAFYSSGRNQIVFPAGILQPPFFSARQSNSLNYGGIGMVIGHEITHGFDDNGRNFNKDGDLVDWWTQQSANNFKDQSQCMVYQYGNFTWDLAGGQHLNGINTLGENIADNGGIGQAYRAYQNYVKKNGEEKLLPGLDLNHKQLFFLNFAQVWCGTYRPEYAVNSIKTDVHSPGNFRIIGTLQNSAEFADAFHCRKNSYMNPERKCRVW
Method: FIG. 2-A: […] The organs are rapidly removed, dissected on ice, freed of nerve fibers and of adipose tissues and then washed in cold oxygenated glucose- and bicarbonate-containing Krebs Ringer (KRBG) solution, whose composition is the following: 120 mM NaCl-5 mM KCl-1.2 mM KH2PO4-27.5 mM NaHCO3-2.6 mM CaCl2-0.67 mM MgSO4-5.9 mM glucose. The slices of tissues are prepared either manually with the aid of a scalpel (1-2 mm thick), or mechanically with the aid of a “Tissue Chopper” (1 mm thick). Slices are then dispersed into reaction tubes where they are subjected to three successive washes in ice-cold oxygenated KRBG. […] For the experiments of analysis of the NEP peptidase activity, an ex vivo model using incubations of membrane and fresh tissue slice preparations from nervous tissues that are known to be appropriate for exploring NEP peptidase activity: i.e. the dorsal zone of rat spinal cord, was first developed. The metabolism rate of the NEP-sensitive peptides was measured using the both NEP substrates involved in the signaling of the nociceptive response: the neuropeptides Met-enkephalin and Substance P. […] (NEN, 12.5-25 nM) were used. The objective was to measure the NEP-specific endoproteolysis of these substrates. […] Furthermore, for studying the functional role of […] NO: 2), the reaction was carried out in the presence of the SMR1-peptide alone or combined with specific inhibitors of membrane peptidases which could inactivate the […] […] Herein, a competitive RIA system has been used: the quantity of radioactive antigen bound to the antibody decreases in a manner inversely proportional to the quantity of antigen contained in the standard solution or in the sample. […] The activity of enkephalinase NEP is monitored by quantification of the disappearance of the initial Met-enkephalin substrate. […] The radiolabeled antigen is iodinated Met-enkephalin (^125I-Met-Enk enkephalin) with a specific radioactivity estimated at 3000 Ci/mmol. […] After centrifugation, the bound radioactivity of the precipitate is quantified using a gamma-spectrometer.

NEP [2] = target: T1, NEP; assay: Met-enkephalin hydrolysis by rat spinal cord slices and membrane preparations, RP-HPLC analysis; format: biochemical; details: 10 μM alone, spinal cord slices, 20 min at 25° C., 10 μM Met-enkephalin
Method: FIG. 2-B: […] Retention time) recovered after 20 min. incubation at 25° C. with 1 mg fresh tissue slices in a 1 ml final volume of KRBG buffer. The organs are rapidly removed, dissected on ice, freed of nerve fibers and of adipose tissues and then washed in cold oxygenated glucose- and bicarbonate-containing Krebs Ringer (KRBG) solution, whose composition is the following: 120 mM NaCl-5 mM KCl-1.2 mM KH2PO4-27.5 mM NaHCO3-2.6 mM CaCl2-0.67 mM MgSO4-5.9 mM glucose. The slices of tissues are prepared either manually with the aid of a scalpel (1-2 mm thick), or mechanically with the aid of a “Tissue Chopper” (1 mm thick). Slices are then dispersed into reaction tubes where they are subjected to three successive washes in ice-cold oxygenated KRBG. […] The organs dissected out and washed in ice-cold KRBG are homogenized at 4° C. in 10 volumes (vol./wt.) of 50 mM Tris/HCl buffered at pH 7.2, using a Teflon-glass homogenizer (3×5 sec.). […] The metabolism rate of the NEP-sensitive peptides was measured using the both NEP substrates involved in the signaling of the nociceptive response: the neuropeptides Met-enkephalin and Substance P. […] Their identification and relative quantification (peak height) are checked by continuously monitoring the UV absorbance at 254 nm of column outflow. […]

male rats = assay: Pin pain test; format: in vivo, rat
Method: The 3-min test session was performed 5 min after intravenous. rat tail vein administration of sialorphin or its vehicle. Naloxone (0.3 mg per kg body weight) was injected subcutaneously 15 min before sialorphin administration. Time in centre field sector (FIG. 6-C) (central square of the open-field without pin) and activity (FIGS. 6-A and 6-B) in peripheral squares (overlayed with pins) during the 3-min test session. Each value represents the mean±sem of 8 animals per group. […] Control group corresponded to pain response in vehicle-treated rats. 50 μg/kg sialorphin, 100 μg/kg sialorphin, 100 μg/kg sialorphin plus naloxone 0.3 mg/kg.
To extend the insight into the in vivo possible antinociceptive property of sialorphin through enkephalin-degrading enzyme inhibition, its effects were assessed in rat model of pain, i.e. the pin pain test, (Hebert et al. (1999) Physiology & Behavior 67, 99-105) in which the various behavioural parameters of pain responses were recorded with a 3-min cutoff time.
The in vivo activity of sialorphin was tested on the pin pain assay using male rats (350-400 g, Charles Rivers). The experimental device consists in an open-field (45×45×40 cm) which is divided into nine equal squares (150×150 mm), eight of them are peripheral and one is central. The peripheral squares are overlayed with stainless steel pins (2/cm2, length 8 mm and diameter 0.6 mm). The test consisted in placing the rat in the central square of the open-field and recording its different behaviours (cut-off time, 3 min). Two days before the pain test, the rats were familiarised with the experimental device without pins for 20 min, so as to reduce the stress linked to the spatial neophobia. All statistical analyses were carried out using the Statview 5 statistical package.

[3] = naloxone 0.3 mg per kg subcutaneous, prior to sialorphin

CC(C)C[C@H](NP(=O)(O)O[C@@H]1O[C@@H](C)[C@H](O)[C@@H](O)[C@H]1O)C(=O)N[C@@H](Cc1c[nH]c2ccccc12)C(=O)O [Phosphoramidon, reference compound]
protection of Met-enkephalin from degradation (NEP [1]): 96%
inhibition of Met-enkephalinase activity (Met-enkephalin degradation) (NEP [2]): complete inhibition

O=C(O)CNC(=O)C(CS)Cc1ccccc1 (stereo not shown) [Thiorphan]
protection of Met-enkephalin from degradation (NEP [1]): 100%

C=CCN1CC[C@]23c4c5ccc(O)c4O[C@H]2C(=O)CC[C@@]3(O)[C@H]1C5 [naloxone, reference compound]
reversal of the sialorphin-effect on behavioural parameters of noxious response (male rats; [3]): 42-63%
reversal of the sialorphin-effect on time in central area (male rats; [3]): 56%
reversal of the sialorphin-effect on vocalisation parameter (male rats; [3]): 20%
time in the central area of the open-field (male rats; sialorphin plus naloxone 0.3 mg/kg s.c. 15 min before sialorphin): 112.38 ± 17.44 s
